*1 amine or outer side, *2 acyl side, *3 side chain or, on linkers, in order; H or OH if unused. Where a SMILES comes first, the peptide text is derived from it. Bridges are numbered along the chain shown (N, C = ends). CH2CONH(CH2)4NHCOCH2 = O=C(C[*:1])NCCCCNC(=O)C[*:2]
Target: T1, human Glucagon-like peptide 2 receptor (GLP-2R) (Homo sapiens, UniProt O95838)
T1 construct: expressed in transfected cells
T1 sequence (O95838 1-553): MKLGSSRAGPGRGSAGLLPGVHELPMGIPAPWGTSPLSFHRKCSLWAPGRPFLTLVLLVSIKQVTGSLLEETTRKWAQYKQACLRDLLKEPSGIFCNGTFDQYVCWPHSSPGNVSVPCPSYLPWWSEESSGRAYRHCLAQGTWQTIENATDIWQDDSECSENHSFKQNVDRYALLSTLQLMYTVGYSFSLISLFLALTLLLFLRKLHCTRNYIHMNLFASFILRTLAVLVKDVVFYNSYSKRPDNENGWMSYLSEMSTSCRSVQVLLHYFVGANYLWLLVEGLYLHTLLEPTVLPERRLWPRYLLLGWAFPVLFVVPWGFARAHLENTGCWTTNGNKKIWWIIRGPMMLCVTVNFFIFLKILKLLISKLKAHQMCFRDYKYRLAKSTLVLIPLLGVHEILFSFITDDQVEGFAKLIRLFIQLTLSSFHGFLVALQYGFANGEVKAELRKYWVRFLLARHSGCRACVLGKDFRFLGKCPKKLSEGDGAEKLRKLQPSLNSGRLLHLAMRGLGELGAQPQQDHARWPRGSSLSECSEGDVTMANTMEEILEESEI
Assay: GLP-2R CRE luciferase assay (receptor-mediated cAMP synthesis)
Assay type: cell-based
Procedure: CREB responsive luciferase stable HEK 293 cell line overexpressing human glucagon receptor (GCGR), glucagon-like peptide 1 receptor (GLP-1R), Glucose-dependent insulinotropic polypeptide receptor (GIPR), or Glucagon-like peptide 2 receptor (GLP-2R) was generated as follows.
HEK293 cells were infected with lent virus encoding firefly luciferase gene under the control of CRE promoter, as described in the manual (Qiagen, Netherlands) and then were selected using 1 μg/mL puromycin (Life technologies, Carlsbad) for 1 week. The survived cells were named as CRE-HEK293, expanded and then transfected with a G418 selective mammalian expression plasmid encoding human GCGR, GLP-1R, GIPR or GLP-2R. In brief, GCGR, GLP-1R, GIPR, or GLP-2R plasmid was transfected into CRE-HEK293 cells using Lipofectamine 2000 and selected with 400 μg/mL geneticin (Life technologies, Carlsbad, Calif.). […]
HEK293-GCGR-CRE, HEK293-GLP-1R-CRE, HEK293-GIPR-CRE, and HEK293-GLP-2R-CRE cells were seeded in a white 384-well plate at a density of 5,000 cells per well and cultured for 24 hours. […] On the next day, 10 μl of Bright-Glo reagent (Promega, Madison, Wis.) were added into each well and firefly luminescence was determined using an Envision multilabel plate reader (PerkinElmer, Waltham, Mass.). EC50 of each peptide was calculated using GraphPad Prism 6 software (GraphPad, San Diego, Calif.).

**Q.** Which EC50 does the source give for CC[C@H](C)[C@@H]1NC(=O)[C@H](Cc2ccccc2)NC(=O)[C@H](CC(=O)O)NC(=O)[C@H](CCCNC(=N)N)NC(=O)[C@H](C)NC(=O)[C@H](C)NC(=O)[C@H](CC(C)C)NC(=O)[C@@H](NC(=O)[C@H](CC(=O)O)NC(=O)[C@H](CC(C)C)NC(=O)[C@@H](NC(=O)[C@@H](NC(=O)[C@H](CC(N)=O)NC(=O)[C@H](CCSC)NC(=O)[C@H](CCC(=O)O)NC(=O)[C@H](CC(=O)O)NC(=O)[C@H](CO)NC(=O)[C@H](Cc2ccccc2)NC(=O)[C@H](CO)NC(=O)CNC(=O)[C@H](CC(=O)O)NC(=O)CNC(=O)[C@@H](N)Cc2c[nH]cn2)[C@@H](C)O)[C@@H](C)CC)CSCC(=O)NCCCCNC(=O)CSC[C@@H](C(=O)N[C@@H](Cc2c[nH]c3ccccc23)C(=O)N[C@@H](CC(C)C)C(=O)N[C@H](C(=O)N[C@@H](CCC(N)=O)C(=O)N[C@H](C(=O)N[C@@H](CCCCN)C(=O)N[C@H](C(=O)N[C@H](C(=O)N[C@@H](CC(=O)O)C(N)=O)[C@@H](C)O)[C@@H](C)CC)[C@@H](C)O)[C@@H](C)CC)NC1=O [mTA52] (H-HGDGSFSDEMNTILDCLAARDFICWLIQTKITD-NH2; linker 16-24 via CH2CONH(CH2)4NHCOCH2) here?
**A.** The EC50 was 5.6 nM.

From US10010589B2, “Modified therapeutic agents, stapled peptide lipid conjugates, and compositions thereof” (priority 2013, dated 2018)
